In patent publication US7704995B2 (Exelixis, Inc., priority 2003, dated 2010) one finds IC50 data, which are given here for 14 compounds.

Each structure is given as a SMILES string.

One assay addresses T1, Chk1 (Homo sapiens, UniProt O14757).
T1 construct: purchased Upstate Biotechnology
T1 sequence (O14757 1-476): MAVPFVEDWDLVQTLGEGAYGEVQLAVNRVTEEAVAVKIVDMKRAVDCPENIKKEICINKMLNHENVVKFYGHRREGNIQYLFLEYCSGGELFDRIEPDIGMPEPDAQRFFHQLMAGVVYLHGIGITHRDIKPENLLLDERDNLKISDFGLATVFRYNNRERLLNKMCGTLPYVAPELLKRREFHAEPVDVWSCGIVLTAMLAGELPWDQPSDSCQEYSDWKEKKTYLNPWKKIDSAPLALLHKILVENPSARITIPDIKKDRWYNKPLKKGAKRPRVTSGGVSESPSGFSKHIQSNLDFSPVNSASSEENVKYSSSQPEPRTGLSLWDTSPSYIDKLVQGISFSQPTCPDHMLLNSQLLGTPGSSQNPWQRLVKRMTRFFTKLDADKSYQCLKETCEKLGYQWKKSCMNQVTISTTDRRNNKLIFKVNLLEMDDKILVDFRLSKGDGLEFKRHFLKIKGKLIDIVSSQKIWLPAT
The experiment in a line: Chk1 kinase assay: incorporation of γ-33P ATP into immobilized myelin basic protein. The assay is classed as biochemical. The settings on record: Table 11, Chk1 only; class symbols A-D; read-out: Chk1 IC50. The gist of the method:
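Read-out is scintillation counting of 33P incorporated into plate-bound myelin basic protein. Chk1 runs at 10 nM enzyme with 10 μM ATP, Chk2 at 20 nM with 30 μM ATP, each for 1 hour at room temperature. Duplicate points; IC50 taken as 50% activity reduction, Ki computed from IC50.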
As to `Nc1ncc(-c2cccc(C(=O)NCc3ccc(F)cc3)c2)nc1-c1nnc([C@H]2CCCNC2)[nH]1` [Example 836, 3-(5-amino-6-{5-[(3S)-piperidin-3-yl]-4H-1,2,4-triazol-3-yl}pyrazin-2-yl)-N-[(4-fluorophenyl)methyl]benzamide], the IC50 is below 0.05 µM.

With `CN(C)c1ccc(CNC(=O)c2cccc(-c3cnc(N)c(C(=O)N[C@H]4CCCNC4)n3)c2)cc1` [Example 852, 3-amino-6-{3-[({[4-(dimethylamino)phenyl]methyl}amino)carbonyl]phenyl}-N-[(3S)-piperidin-3-yl]pyrazine-2-carboxamide], the half-inhibitory concentration (IC50) is below 0.05 µM.

For `Nc1ncc(-c2cccc(CNC(=O)c3ccc4c(c3)CCO4)c2)nc1C(=O)N[C@H]1CCCNC1` [Example 936, 3-amino-6-(3-{[(2,3-dihydro-1-benzofuran-5-ylcarbonyl)amino]methyl}phenyl)-N-[(3S)-piperidin-3-yl]pyrazine-2-carboxamide], the IC50 is below 0.05 µM.

The same assay, now with this note: Table 11; Chk1 only; read-out: Chk1 IC50.
On to `CNC(=O)c1nc(-c2cccc(CNCc3cnc(C)cn3)c2)cnc1N` [Example 435, 3-amino-N-methyl-6-[3-({[(5-methylpyrazin-2-yl)methyl]amino}methyl)phenyl]pyrazine-2-carboxamide], for which the IC50 was 0.05 to 1 µM.

For the compound `CNC(=O)c1nc(-c2cccc(CNC(CN(C)C)c3ccccc3)c2)cnc1N` (centres unmarked) [Example 511, 3-amino-6-[3-({[2-(dimethylamino)-1-phenylethyl]amino}methyl)phenyl]-N-methylpyrazine-2-carboxamide], the IC50 is 0.05 to 1 µM.

Still in this assay, the particulars now being: read-out: Chk1 IC50.
Regarding `CNC(=O)c1nc(-c2cccc(CNC(=O)c3ccc(Cl)cc3)c2)cnc1N` [Example 309, 3-amino-6-[3-({[(4-chlorophenyl)carbonyl]amino}methyl)phenyl]-N-methylpyrazine-2-carboxamide], the IC50 fell in the range of 0.05 to 1 µM.

As to `CNC(=O)c1nc(-c2cccc(C(=O)NCc3cc(F)ccc3C)c2)cnc1N` [Example 287, 3-amino-6-[3-({[(5-fluoro-2-methylphenyl)methyl]amino}carbonyl)phenyl]-N-methylpyrazine-2-carboxamide], the IC50 lay in the range of 0.05 to 1 µM.

Turning to `CNC(=O)c1nc(-c2cccc(OCCN3CCCC3)c2)cnc1N` [Example 191, 3-amino-N-methyl-6-{3-[(2-pyrrolidin-1-ylethyl)oxy]phenyl}pyrazine-2-carboxamide], the IC50 was 0.05 to 1 µM.

In the case of `CNC(=O)c1nc(-c2cccc(CN[C@@H]3CCc4ccccc43)c2)cnc1N` [Example 417, 3-amino-6-(3-{[(1R)-2,3-dihydro-1H-inden-1-ylamino]methyl}phenyl)-N-methylpyrazine-2-carboxamide], the IC50 is 0.05 to 1 µM.

On to `CCNC(=O)c1nc(-c2cccc(N)c2)cnc1N` [Example 88, 3-amino-6-(3-aminophenyl)-N-ethylpyrazine-2-carboxamide], for which the IC50 lay within 1 to 10 µM.

Consider `CNC(=O)c1nc(-c2cccc(C(=O)NCc3ccc(Cl)c(Cl)c3)c2)cnc1N` [Example 279, 3-amino-6-[3-({[(3,4-dichlorophenyl)methyl]amino}carbonyl)phenyl]-N-methylpyrazine-2-carboxamide], for which the IC50 is 0.05 to 1 µM.

In the case of `CNC(=O)c1nc(-c2cccc(C(=O)NC3CCN(Cc4ccccc4)CC3)c2)cnc1N` [Example 118, 3-amino-N-methyl-6-[3-({[1-(phenylmethyl)piperidin-4-yl]amino}carbonyl)phenyl]pyrazine-2-carboxamide], the IC50 was 0.05 to 1 µM.

For the compound `CNC(=O)c1nc(-c2cccc(C(=O)NCc3ccccc3-c3ccc(F)cc3)c2)cnc1N` [Example 280, 3-amino-6-[3-({[(4′-fluorobiphenyl-2-yl)methyl]amino}carbonyl)phenyl]-N-methylpyrazine-2-carboxamide], the IC50 was in the range of 0.05 to 1 µM.

As to `CNC(=O)c1nc(-c2cccc(C(=O)NCc3ccc(C)c(F)c3F)c2)cnc1N` [Example 298, 3-amino-6-[3-({[(2,3-difluoro-4-methylphenyl)methyl]amino}carbonyl)phenyl]-N-methylpyrazine-2-carboxamide], the IC50 was 0.05 to 1 µM.
